Results published in the NIST ThermoML archive (doi:10.1021/je100089s).

Test: xn = mol fraction of the nth substance listed
Details: Liquid, Vibrating tube method

OCCO [1,2-ethanediol] + C[S+](C)[O-]
mass density [kg/m3]
Details	101 kPa	10000 kPa	25000 kPa	50000 kPa	75000 kPa	100000 kPa
278.15 K, x2 = 0	1123.77	1127.65	1133.2	1141.71	1149.55	1157.24
278.15 K, x2 = 0.00452	1123.78	–	–	–	–	–
278.15 K, x2 = 0.00721	1123.81	–	–	–	–	–
278.15 K, x2 = 0.0181	–	1127.79	1133.35	1141.89	1149.87	1157.59
278.15 K, x2 = 0.01811	1123.89	–	–	–	–	–
278.15 K, x2 = 0.03033	1123.98	–	–	–	–	–
278.15 K, x2 = 0.04027	1124.05	–	–	–	–	–
278.15 K, x2 = 0.0403	–	1127.98	1133.57	1142.21	1150.25	1158.01
278.15 K, x2 = 0.07007	1124.18	–	–	–	–	–
278.15 K, x2 = 0.0701	–	1128.13	1133.74	1142.44	1150.68	1158.48
278.15 K, x2 = 0.1097	1124.31	1128.3	1133.94	1142.73	1151.17	1159.03
278.15 K, x2 = 0.1408	1124.41	1128.43	1134.12	1142.98	1151.53	1159.45
278.15 K, x2 = 0.1934	1124.41	1128.44	1134.19	1143.24	1151.93	1159.97
278.15 K, x2 = 0.234	1124.34	1128.39	1134.22	1143.4	1152.14	1160.33
278.15 K, x2 = 0.3244	1124.05	1128.13	1134.17	1143.66	1152.48	1160.9
278.15 K, x2 = 0.3764	1123.76	1127.85	1134.01	1143.73	1152.55	1161.23
278.15 K, x2 = 0.4429	1123.28	1127.37	1133.7	1143.69	1152.53	1161.47
278.15 K, x2 = 0.4892	1122.88	1126.97	1133.44	1143.64	1152.45	1161.74
278.15 K, x2 = 0.5654	1122.14	1126.24	1132.95	1143.45	1152.24	1162
278.15 K, x2 = 0.6298	1121.26	–	–	–	–	–
278.15 K, x2 = 0.6946	1120.52	–	–	–	–	–
288.15 K, x2 = 0	–	1120.87	1126.51	1135.26	1143.65	1151.55
288.15 K, x2 = 0.0181	–	1120.9	1126.66	1135.53	1143.78	1151.74
288.15 K, x2 = 0.0403	–	1121	1126.79	1135.69	1144	1152.03
288.15 K, x2 = 0.0701	–	1121.06	1126.89	1135.92	1144.4	1152.42
288.15 K, x2 = 0.1097	–	1121.09	1126.97	1136.1	1144.77	1152.92
288.15 K, x2 = 0.1408	–	1121.09	1127.02	1136.28	1145.05	1153.32
288.15 K, x2 = 0.1934	–	1121	1127.02	1136.35	1145.29	1153.81
288.15 K, x2 = 0.234	–	1120.87	1127.02	1136.51	1145.4	1154.03
288.15 K, x2 = 0.3244	1115.95	1120.42	1126.73	1136.43	1145.62	1154.61
288.15 K, x2 = 0.3764	1115.49	1119.99	1126.45	1136.4	1145.68	1154.78
288.15 K, x2 = 0.4429	1114.8	1119.41	1126.08	1136.29	1145.64	1154.83
288.15 K, x2 = 0.4892	1114.25	1118.92	1125.69	1136.07	1145.55	1154.79
288.15 K, x2 = 0.5654	1113.29	1118.05	1125.01	1135.67	1145.31	1154.87
288.15 K, x2 = 0.6298	1112.27	–	–	–	–	–
288.15 K, x2 = 0.6946	1111.32	1116.19	1123.4	1134.56	1144.55	1154.68
288.15 K, x2 = 0.8142	1109.13	–	–	–	–	–
298.15 K, x2 = 0	–	1113.97	1119.78	1128.78	1137.41	1145.51
298.15 K, x2 = 0.0181	–	1114	1119.85	1128.92	1137.62	1145.75
298.15 K, x2 = 0.0403	–	1114.01	1119.92	1129.12	1137.93	1145.93
298.15 K, x2 = 0.0701	–	1114.01	1119.95	1129.25	1138.31	1146.24
298.15 K, x2 = 0.1097	–	1113.67	1119.88	1129.29	1138.51	1146.54
298.15 K, x2 = 0.1408	1109.42	1113.44	1119.71	1129.45	1138.73	1146.83
298.15 K, x2 = 0.1934	1109.06	1112.87	1119.4	1129.48	1138.98	1147.29
298.15 K, x2 = 0.234	1108.72	1112.42	1119.03	1129.27	1139.19	1147.46
298.15 K, x2 = 0.3244	1107.82	1111.54	1118.39	1128.95	1139.38	1147.77
298.15 K, x2 = 0.3764	1107.21	1110.95	1117.96	1128.79	1139.43	1147.93
298.15 K, x2 = 0.4429	1106.29	–	–	1128.43	1139.4	1148.01
298.15 K, x2 = 0.4892	1105.6	1109.49	–	1128.14	1139.31	1147.94
298.15 K, x2 = 0.5654	1104.44	1108.61	1116.04	1127.67	1139.23	1147.85
298.15 K, x2 = 0.6946	1102.13	1106.65	1114.43	1126.58	1138.74	1147.55
298.15 K, x2 = 0.8142	1099.6	1104.54	1112.6	1125.27	1137.98	1146.87
298.15 K, x2 = 0.867	1098.37	–	–	–	–	–
298.15 K, x2 = 0.9266	1097.09	–	1110.81	1123.79	1137.07	1146.03
298.15 K, x2 = 0.9836	–	1101.52	–	1123.02	–	–
298.15 K, x2 = 0.9968	1095.42	–	–	–	–	–
308.15 K, x2 = 0	–	1107.05	1112.97	1122.28	1131.41	1139.57
308.15 K, x2 = 0.0181	–	1107.03	1113.01	1122.41	1131.6	1139.78
308.15 K, x2 = 0.0403	–	1106.95	1112.98	1122.46	1131.72	1139.87
308.15 K, x2 = 0.07007	1102.45	–	–	–	–	–
308.15 K, x2 = 0.0701	–	1106.68	1112.81	1122.47	1131.86	1140.08
308.15 K, x2 = 0.1097	1102.12	1106.18	1112.54	1122.52	1132.17	1140.24
308.15 K, x2 = 0.1408	1101.88	1105.87	1112.37	1122.47	1132.33	1140.54
308.15 K, x2 = 0.1934	1101.33	1105.29	1111.97	1122.32	1132.37	1140.74
308.15 K, x2 = 0.234	1100.86	1104.74	1111.63	1122.23	1132.39	1140.88
308.15 K, x2 = 0.3244	1099.65	1103.53	1110.76	1121.85	1132.45	1140.94
308.15 K, x2 = 0.3764	1098.89	–	–	1121.58	1132.41	1140.97
308.15 K, x2 = 0.4429	1097.76	1101.57	1109.29	1121.09	1132.2	1140.85
308.15 K, x2 = 0.4892	1096.94	1100.74	1108.61	1120.71	1132.04	1140.71
308.15 K, x2 = 0.5654	–	1099.47	1107.59	1120.07	1131.68	1140.47
308.15 K, x2 = 0.6298	1094.18	–	–	–	–	–
308.15 K, x2 = 0.6946	1092.91	1097.4	1105.69	1118.74	1130.89	1139.72
308.15 K, x2 = 0.8142	1090.07	1094.91	1103.81	–	1129.86	1138.6
308.15 K, x2 = 0.9266	1087.25	1092.99	1101.96	1115.8	1128.85	1137.41
308.15 K, x2 = 0.9577	1086.43	–	–	–	–	–
308.15 K, x2 = 0.9836	1085.76	1091.87	1100.89	1115.04	1128.14	1136.73
308.15 K, x2 = 0.992	1085.53	–	–	–	–	–
308.15 K, x2 = 0.9968	1085.39	–	–	–	–	–
323.15 K, x2 = 0	1092.12	–	–	1112.75	1122.55	1130.66
323.15 K, x2 = 0.00452	1092.05	–	–	–	–	–
323.15 K, x2 = 0.00721	1092.03	–	–	–	–	–
323.15 K, x2 = 0.0181	–	–	–	1112.77	1122.62	1130.77
323.15 K, x2 = 0.01811	1091.95	–	–	–	–	–
323.15 K, x2 = 0.03033	1091.83	–	–	–	–	–
323.15 K, x2 = 0.04027	1091.72	–	–	–	–	–
323.15 K, x2 = 0.0403	–	–	–	1112.8	1122.72	1130.87
323.15 K, x2 = 0.07007	1091.39	–	–	–	–	–
323.15 K, x2 = 0.0701	–	–	1102.37	1112.82	1122.84	1130.96
323.15 K, x2 = 0.1097	1090.85	1095.4	1102.05	1112.71	1122.87	1131
323.15 K, x2 = 0.1408	1090.44	1095	1101.79	1112.64	1122.91	1131.06
323.15 K, x2 = 0.1934	1089.61	1094.25	1101.25	1112.4	1122.85	1130.99
323.15 K, x2 = 0.234	–	1093.65	1100.8	1112.23	1122.77	1130.94
323.15 K, x2 = 0.3244	1087.33	1092.16	1099.69	1111.61	1122.44	1130.63
323.15 K, x2 = 0.3764	1086.33	1091.26	1098.98	1111.18	1122.18	1130.38
323.15 K, x2 = 0.4429	1084.93	1090	1097.94	1110.52	1121.69	1129.92
323.15 K, x2 = 0.4892	1083.92	–	1097.2	–	1121.34	1129.57
323.15 K, x2 = 0.5654	1082.23	1087.55	–	1109.22	1120.75	1128.99
323.15 K, x2 = 0.6298	1080.61	–	–	–	–	–
323.15 K, x2 = 0.6946	1079.07	1084.73	1093.6	1107.58	1119.48	1127.72
323.15 K, x2 = 0.8142	1075.74	1081.78	1091.06	1105.68	1117.9	1126.09
323.15 K, x2 = 0.867	1074.15	–	–	–	–	–
323.15 K, x2 = 0.9266	1072.5	1078.85	–	1103.78	1116.27	1124.43
323.15 K, x2 = 0.9577	1071.55	–	–	–	–	–
323.15 K, x2 = 0.9836	1070.76	1077.32	1087.21	–	1115.35	1123.49
323.15 K, x2 = 0.992	1070.5	–	–	–	–	–
323.15 K, x2 = 0.9968	1070.35	–	–	–	–	–
